What was measured:
[1] = Solubility of synthetic glycolipids in hot PBS; format: physicochemical; details: hot PBS
Text: In the context of this description the phrase “water soluble” means a stable, single phase system is formed when the synthetic molecule construct is contacted with water or saline (such as PBS) in the absence of organic solvents or detergents, and the term “solution” has a corresponding meaning.
For use in the transformation of cells the first criterion that synthetic glycolipids must satisfy is that they are soluble in aqueous solvents, e.g. phosphate buffered saline.
Initial tests on the molecules were to establish solubility and thus eliminate those molecules that were unsuitable for use in the transformation of cells.

RBCs [2] = experiment: Detectable transformation ability of synthetic glycolipids (agglutination); format: cell-based; details: agglutination with the appropriate antibody
Text: The synthetic glycolipid must also be able to insert into the membrane and be recognisable to the appropriate antibody for transformation to be detected by agglutination. Initial tests on the molecules were to establish solubility and thus eliminate those molecules that were unsuitable for use in the transformation of cells.

RBCs [3] = experiment: Evaluation of insertion of different lipid tails by agglutination with the relevant antisera; format: cell-based; parameters: scale not given here; details: second series
Text: Transformation of RBCs with synthetic glycolipids with different lipid tails was first evaluated (Tables 22 and 24).

RBCs [4] = experiment: Insertion efficiency: post-transformation supernatant solutions, tube serology; format: cell-based
Protocol: The post-transformation supernatant solutions (from Atri-sp-Ad-DOPE (I) at 0.08 mg/mL, 0.05 mg/mL and 0.03 mg/mL, and Btri-sp-Ad-DOPE (VI) at 0.6 mg/mL, 20 μL) were added neat and in a 1:2 dilution to washed, packed RBCs (60 μL). The tubes were incubated in a 37° C. waterbath for one hour, with mixing taking place every 15 minutes.
The transformed RBCs were washed 3× with PBS and then suspended in Cellstab™ at the appropriate concentration for serology testing.

RBCs [5] = experiment: Insertion efficiency: post-transformation solutions concentrated 20x, Diamed serology; format: cell-based; details: post-transformation solution concentrated 20×, from 0.60 mg/mL
Protocol: In addition, the post-transformation solutions were concentrated 20× and compared in parallel with the transformation solutions of known concentration. Only the post-transformation solutions derived from the 0.08 mg/mL Atri-sp-Ad-DOPE (I) and 0.6 mg/mL Btri-sp-Ad-DOPE (VI) solutions were tested.
Post-transformation solutions (20 μL) were dialysed (pore size 500 Da) against de-ionised water for 2 days. The samples were left to dry in a fumehood for 10 days. At the end of this time they were transferred into a rotavapor flask and set on the rotavapor to rotate under vacuum with no heat overnight. Samples were dried in a water bath at 40° C. and washed over into smaller vessels with chloroform-methanol 2:1 leaving significant amounts of dried cellular material. The chloroform-methanol 2:1 washings were dried down, washed over again into test-tubes with chloroform-methanol 2:1 and dried down. These samples were redissolved in 1 mL of 1× PBS and used for transformation experiments. The cellular material in the bottom of the flasks was washed out with water into another set of tubes.
The post-transformation solutions (from Atri-sp-Ad-DOPE (I) at 0.08 mg/mL and Btri-sp-Ad-DOPE (VI) at 0.6 mg/mL, 20 μL) were added to washed, packed RBCs (60 μL). […]

[6] = system: group O red blood cells (RBCs); experiment: Tube serology of group O RBCs transformed at 37° C. with synthetic glycolipids; format: cell-based, human; details: 0.25 mg/mL, Day 44
Protocol: (§1) Washed packed group O red blood cells (RBCs) (3 parts by volume) and the synthetic glycolipid solution (1 part by volume, varying concentrations) were added to an eppendorf tube. The tube was incubated in a 37° C. waterbath for one hour, mixing every 15 minutes. […]
(§2) Tube serology and Diamed gel-card results for RBCs transformed with the different synthetic molecule constructs are provided in Table 38. Results for the stability of the RBCs transformed with the different synthetic glycolipids at different concentrations are provided in Tables 39 to 44.

[7] = system: group O red blood cells (RBCs); experiment: Diamed gel-card agglutination of group O RBCs transformed at 37° C. with synthetic glycolipids; format: cell-based, human; parameters: scale not given here; details: 0.25 mg/mL; Day 116; Cellstab
Protocol: as §1, §2

embryos = experiment: Embryo modification, test for insertion by fluorescence; format: cell-based
Protocol: The embryo zona pellucida was removed by treating embryos with 0.5% pronase in a 37° C. oven for 6 minutes or until all zonas were removed. Micro-drops were prepared by adding 5 μl of synthetic glycolipid Atri-sp-Ad-DOPE (I) or Btri-sp-Ad-DOPE (VI), at a concentration of 1 mg/mL to a 45 μl drop of M2 media overlaid with mineral oil. All embryo groups were incubated in the 50 μl micro-drops for 1 hour at 37° C. Embryos from experimental and control groups were washed 3× with M2 media.
Embryos from experimental and control groups were placed into a micro-drop of corresponding antibody and incubated for 30 min at 37° C. Embryos from experimental and control groups were washed 3× with M2 media.
Embryos from all experimental and control groups were placed into micro-drops of anti-mouse Ig FITC (1:50 dilution anti-mouse Ig FITC in M2) and incubated for 30 min at 37° C. Embryos from experimental and control groups were washed 3× with M2 media. Embryos were mounted on microscope slides in a 5 μl drop of M2 and the drops overlaid with oil.
The slides were viewed under a fluorescence microscope.

[8] = system: endometrial cells and embryos; experiment: Attachment of transformed endometrial cells to modified embryos; format: cell-based; details: 15 minutes at 37° C.
Protocol: Modified embryos (BioG-Avidin-BioIgG^B and BioG-Avidin-BioIgM^A) were prepared in accordance with the methods described in the specification accompanying the international application no. PCT/NZ03/00059 (published as WO03/087346).
Two concave glass slides were prepared, one with two wells of synthetic glycolipid Atri-sp-Ad-DOPE (I) inserted endometrial cells and the other with two wells of synthetic glycolipid Btri-sp-Ad-DOPE (VI) inserted endometrial cells.
The embryos were surrounded with endometrial cells. The wells were covered with mineral oil and incubated for 15 minutes at 37° C. Using a wide bore handling pipette each group of embryos were carefully transferred to a fresh drop of M2 media. The embryos were gently washed. The embryos were gently transferred into 2 μL of M2 media on a marked microscope slide. Each drop was overlaid with mineral oil
Under a central plane of focus on an Olympus microscope the number of endometrial cells adhered to the embryos in each group was assessed. The number of cells adhered to each embryo was recorded.

Water solubility [1]: Yes
SMILES: CCCCCCCC/C=C\CCCCCCCC(=O)OC[C@H](COP(=O)(O)OCCNC(=O)CCCCC(=O)NCCCO[C@@H]1O[C@H](CO)[C@H](O)[C@H](O[C@H]2O[C@H](CO)[C@H](O)[C@H](O)[C@H]2O)[C@H]1O[C@@H]1O[C@@H](C)[C@@H](O)[C@@H](O)[C@@H]1O)OC(=O)CCCCCCC/C=C\CCCCCCCC [Btri-sp-Ad-DOPE (VI)]
Detectable transformation ability (RBCs [2]): Yes
Agglutination score (RBCs [3]; 60 μg/mL, Alba anti-B): 0
Agglutination score (RBCs [3]; 60 μg/mL, Bio anti-B): 0
Agglutination score (RBCs [3]; 125 μg/mL, Alba anti-B): 0
Agglutination score (RBCs [3]; 125 μg/mL, Bio anti-B): 0
Score (tube serology) (RBCs [4]; 1:2, pre-trans conc 0.60 mg/mL): 0
Score (tube serology) (RBCs [4]; neat, pre-trans conc 0.60 mg/mL): vw+
Score (Diamed serology) (RBCs [5]): 0
Agglutination, manual tube serology, Bioclone anti-B ([6]; Alsevers): w+
Agglutination, manual tube serology, Bioclone anti-B ([6]; Cellstab): ^‡
Agglutination, Diamed gel-cards, Albaclone anti-B [7]: 0
Transformation of embryos visualised by fluorescence (embryos; 1 mg/mL stock in micro-drop, 1 hour 37° C.): negative result
Fluorescence score after incubation with IgFITC Probe (embryos; embryos, inserted antigen 1 mg/mL, 1 hour at 37° C., 1° antibody Anti-B Bioclone, anti-mouse Ig FITC 1:50): 0
Average number of endometrial cells attached to modified embryos ([8]; embryos modified with BioG-Avidin-BioIgG^B): 6.7
Average number of endometrial cells attached to modified embryos ([8]; embryos modified with BioG-Avidin-BioIgM^A): 3.4

From patent US10858384B2, “Synthetic molecule constructs” (KODE BIOTECH LIMITED, priority 2004, dated 2020)
